In article PMC4515242, “ESR and X-ray Structure Investigations on the Binding and Mechanism of Inhibition of the Native State of Myeloperoxidase with Low Molecular Weight Fragments” (Applied Magnetic Resonance, 2015):

Columns and labels:
[1] = molecular target: T1, native state (Fe3+) of hMPO (Homo sapiens, UniProt P05164); experiment: Low temperature ESR binding assay (binding-induced g shift, Rrelative); conditions: for ESR Rrelative: Rrelative = (Rbound - Rnative)/Rnative x 100, inhibitor:MPO 40:1, pH 6, 6 % DMSO, 4-7 K; for ESR Binding: class by Rrelative, inhibitor:MPO 40:1; for Δg: absolute difference between g X and g Y of the bound complex; for g X / g Y: electronic g value of the bound complex, X-band ESR, 5 K
T1 construct: purchased Athens Research and Technology
T1 sequence (P05164 49-745): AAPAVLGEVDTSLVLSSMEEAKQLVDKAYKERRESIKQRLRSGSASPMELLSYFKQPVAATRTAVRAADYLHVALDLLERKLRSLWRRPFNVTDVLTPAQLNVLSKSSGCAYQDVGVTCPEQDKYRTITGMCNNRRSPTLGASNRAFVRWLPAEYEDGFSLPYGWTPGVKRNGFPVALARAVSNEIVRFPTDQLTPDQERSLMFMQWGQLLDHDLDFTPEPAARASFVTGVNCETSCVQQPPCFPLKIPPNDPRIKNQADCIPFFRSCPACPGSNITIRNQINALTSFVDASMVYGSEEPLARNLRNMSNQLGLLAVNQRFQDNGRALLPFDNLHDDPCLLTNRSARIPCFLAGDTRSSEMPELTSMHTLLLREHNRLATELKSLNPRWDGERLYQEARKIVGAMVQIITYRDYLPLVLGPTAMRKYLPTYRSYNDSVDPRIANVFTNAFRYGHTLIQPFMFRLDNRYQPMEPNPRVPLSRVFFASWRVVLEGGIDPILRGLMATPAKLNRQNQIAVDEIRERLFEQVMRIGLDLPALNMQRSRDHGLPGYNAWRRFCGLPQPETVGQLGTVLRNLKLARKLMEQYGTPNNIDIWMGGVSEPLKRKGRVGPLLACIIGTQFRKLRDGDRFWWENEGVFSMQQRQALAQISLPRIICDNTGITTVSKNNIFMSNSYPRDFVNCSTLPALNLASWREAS
Method: After 5-min. incubation at room temperature, the entire reaction mixture (0.235 mL) was transferred to the ESR quartz tubes. To avoid the quartz tubes breaking during the rapid freezing cycles, the ESR tubes were initially frozen in a 1:1 Isopentane-Cyclohexane mixture cooled with dry ice powder and then transferred to a liquid nitrogen Dewar to be queued up for ESR measurements. The reaction mixture contained a final concentration of 6 % DMSO. ESR spectra were recorded on a Varian E-12, X-band spectrometer equipped with an Air Products liquid helium cryostat.
The experimental g values correspond to the spin Hamiltonian pertinent to the high-spin ion (S = 5/2).1 H=DSZ2-1/3SS+1+E/DSX2-SY2+βgeS.Be where D and E are the eigen values of the axial and rhombic field components, i.e., the symmetry of the ligand (inhibitors approaching heme in this case). […] When the heme lodges inside the protein, the protein side chain amino acid (histidine) approaches the heme vicinity and either binds (axially) directly to the iron in the heme pocket. […] Thus, the fifth ligand leads to lower (rhombic) symmetries causing the signal at g ~ 6 to split. This non-tetragonal splitting of the heme is quantitated by the relationship,2 E/D=Δg/48 where ∆g represents the absolute difference between the gX and gY components. Alternatively, making use of the fact that E/D maximum value = 1/3, one can simplify the above expression as a percentage of rhombicity, R:3 R=Δg/16×100%. […] To rank-order molecules in terms of their ability to distort the heme pocket/plane environment, we used a ratio of total distortion in the bound complex w.r.t. distortion seen in the native unbound enzyme:4 Rrelative=Rbound-Rnative/Rnative×100.
From the relative rhombicities of the bound and unbound complex, a measure of the strength of binding could be derived. […] For the ease of classification, we have empirically defined those with 5 ≤ Rrelative ≥ 2 as weak binding; 15 ≥ Rrelative ≥ 10 as moderate binding; and 25 ≥ Rrelative ≥ 15 as strong binding (Table 2).

[2] = molecular target: T2, hMPO (Homo sapiens, UniProt P05164); experiment: Alpha screen assay: inhibition of MPO-initiated nitration of the Apo-A1 peptide ([…]); type: biochemical; conditions: MPO 11.8 nM, pH 7.4, 45 min RT
T2 construct: purchased Biodesign A31804H
T2 sequence (P05164 49-745): T1 sequence (P05164 49-745)
Method: In a typical experiment, MPO (11.8 nM final concentration) in 20 mM phosphate buffer pH 7.4, 10 % glycerol and 0.005 % gelatin (PB) is added to each well of a multi-well plate containing 20 μl PB ± compound (final concentration of DMSO = 0.9 %). The reaction is started by the addition of 20 μl PB containing 1.5 μM ApoAI peptide substrate, 300 μM diethylenetriaminepentaacetic acid (DTPA), 300 μM sodium nitrite, and 30 μM H2O2. The total reaction volume is 60 μl. The plates are incubated with agitation for 45 min at RT. The reaction is terminated with the addition of 20 μl of a stop solution containing 11.2 nM rabbit anti-nitrotyrosine antibody (final conc. of 2.8 nM), 100 μg/ml streptavidin donor beads, and 100 μg/ml protein A acceptor beads (final concentration of […]), FBS (1.6 % final concentration) in Superblock buffer. The plates are sealed, incubated in the dark for 1 h, and read on a Packard Fusion alpha plate reader.
Through a chloride independent pathway, MPO catalyzes the one electron oxidation of nitrite ions to nitrogen dioxide radicals which then […] protein amino acids like Tyrosine. We used the Apo-A1 peptide substrate ([…]) to follow the nitration of the Tyrosine (indicated by Y in the scheme below): MPO+H2O2→Compound INO2-+Compound I→NO2·+Compound II [drawing 1] Our initial experiments focused on identifying inhibitors that bind to the heme to inhibit the above catalytic action. A representative set of inhibitors is collected in Fig. 1a (strong binders, vide infra) and b (non binders, vide infra).

[3] = ABTS radical cation decolorization assay to measure the antioxidant capacity; conditions: % inhibition at 20 uM single dose, read at 734 nm after 30 min
Method: The assay was modeled after the published procedure. Briefly, ABTS radical cation was prepared by adding 100 μl of 70 mM K2S2O8 to 10 ml ABTS, followed by vortexing and incubating at 37 °C water bath for 2 h. […] Trolox standards are dissolved in water. The reaction is started by adding the ABTS radical cation solution to the MPO inhibitors or Trolox (final concentration 20 μM). The plate is gently shaken for 1 min and then set on a bench top at room temperature for 30 min.

[4] = molecular target: T3, Human Myeloperoxidase (Homo sapiens, UniProt P05164); experiment: X-ray co-crystal growth by soaking MPO crystals with inhibitor; conditions: crystals soaked with 50 mM inhibitor
T3 construct: purchased Lee Biosciences 426-10
T3 sequence (P05164 49-745): T1 sequence (P05164 49-745)
Method: Human Myeloperoxidase and co-crystals of MPO were crystallized and analyzed using methods similar to those described by Davey and Fenna. Briefly, hanging drops of 25 mg/mL MPO, 25 mM sodium acetate pH 5.0, 50 mM NaCl, 50 mM ammonium sulfate, 2 mM calcium chloride, and 3-10 % polyethylene glycol 8000 were set up at 21 °C over reservoir solutions containing 300 mM sodium chloride. Crystals of the space group P21 and having two MPO subunits per asymmetric unit grew with the aid of micro-seeding as very thin plates having a brownish orange tinge. Crystals were soaked with inhibitor compounds at a concentration of 50 mM, in a stabilizing buffer containing 18 % polyethylene glycol 8000, 56 mM ammonium sulfate, 2.2 mM calcium acetate, and 56 mM HEPES pH 7.0. Co-crystals were cryo-protected in a stabilizing buffer containing 22.2 % methylpentanediol prior to flash cooling in liquid nitrogen.
Diffraction data were collected at 100 K using Synchrotron beam line 31ID at the Advanced Photon Source (Argonne National Laboratory) and were integrated using MOSFLM v.6.2.6 [18]. […] Inhibitor binding to the MPO heme group was indicated by appropriately shaped peaks in the Fo–Fc electron density maps. The inhibitor was included in the model, and iterative cycles of manual model building with COOT [20] and restrained refinement with REFMAC v5.2.0019 [21] were used to complete the overall structure. Figures of the crystal structure were generated using PYMOL (www.pymol.org). […] The higher B-factors for the inhibitor molecules could be attributed to inhibitor occupancies of less than 1.0 or to higher degrees of thermal motion associated with the inhibitors. Lower than expected electron density peak heights were also observed for the Cl atom in the inhibitors, which could be due to the radiation damage to this X-Ray sensitive group.

| Structure (SMILES) | ESR Rrelative [1] | ESR Binding [1] | IC50 [2] | % Anti oxidant potential [3] | X ray Cocrystal result [4] | Δg [1] | g X [1] | g Y [1] |
| --- | --- | --- | --- | --- | --- | --- | --- | --- |
| O=C(NO)c1ccccc1O [LSN13243] | 14.7 | Moderate (15 ≥ Rrelative ≥ 10 as moderate binding) | 5.9 µM | 74.9% | Yes |  |  |  |
| S=c1[nH]nc(-c2ccncc2)o1 [LSN19450] | 0 | No | 3.99 µM | 85.8% | No |  |  |  |
| O=C(O)c1n[nH]c2ccccc12 [LSN23500] | 2.4 | Weak (5 ≤ Rrelative ≥ 2 as weak binding) | 160 µM | 0% | No | 1.875 | 6.789 | 4.914 |
| Cc1c(N)n[nH]c1-c1ccccc1 [LSN27223] | 3.3 | Weak (5 ≤ Rrelative ≥ 2 as weak binding) | 0.698 µM | 32.7% | No |  |  |  |
| O=C1CC(c2ccc(Cl)cc2)=NN1 [LSN34893] | 0.2 | No | 0.219 µM | 53.4% | No |  |  |  |
| Cc1cc(C)c2c(O)n[nH]c2n1 [LSN42503] | 0.3 | No | 0.168 µM | 82.5% | No |  |  |  |
| Cc1cc(O)nc2[nH]nc(O)c12 [LSN66421] | 0.2 | No | 0.406 µM | 10.4% | No |  |  |  |
| NC(=O)c1n[nH]cc1O [LSN104607] | 0 | No | 0.667 µM | 1.56% | No |  |  |  |
| O=[N+]([O-])c1c(O)ncnc1O [LSN106019] | 29.2 | Strong (25 ≥ Rrelative ≥ 15 as strong binding) | 538 µM | 0% | Yes | 2.31 | 7.023 | 4.713 |
| Cc1cc(C(F)(F)F)c(C#N)c(=O)[nH]1 [LSN131429] | -28.6 | Strong (25 ≥ Rrelative ≥ 15 as strong binding) | 138 µM | 9% | Yes | 1.344 | 6.559 | 5.215 |
| Oc1nnc(-c2ccccc2)s1 [LSN227931] | 0.2 | No | 333 µM | 0% | No |  |  |  |
| Oc1n[nH]c2c1CCC2 [LSN386639] | 0.2 | No | 0.396 µM | 38.2% | No |  |  |  |
| Sc1nnc(-c2cccnc2)o1 [LSN811183] | 16.5 | Strong (25 ≥ Rrelative ≥ 15 as strong binding) | 73 µM | 95.9% | Yes | 2.115 | 6.924 | 4.809 |
| Fc1ccccc1-c1n[nH]c(=S)o1 [LSN2303506] | 21.7 | Strong (25 ≥ Rrelative ≥ 15 as strong binding) | 27.9 µM | 97.7% | Yes | 2.1759 | 6.9749 | 4.799 |
